Laboratory results as given in patent US10815257B2, “Polymorph of sodium neridronate and preparation process thereof” (ABIOGEN PHARMA S.P.A., priority 2018, dated 2020).

Legend:
Type in all cases: physicochemical
[1] = Hygroscopicity study by Dynamic Vapor Sorption (DVS); details: 25° C.; for mass variation (humidity absorption, DVS): 90% relative humidity (RH); for behavior in DVS hygroscopicity study: RH 0 to 90%
Procedure: The Hygroscopicity study was carried out on samples of polymorphic crystalline forms F, B and E of sodium neridronate by measuring the humidity absorption kinetics, in a range of relative humidity (RH %) comprised between 0 and 90%, at the temperature of 25° C.

[2] = Stability study at 40° C. and 75% RH monitored by XRD; details: for stability of crystalline form over time (XRD): eight weeks observation
Procedure: The stability study was carried out on samples of crystalline polymorphic forms B, E, and the hemihydrate form F of sodium neridronate, stored in an environment characterized by 75% relative humidity (RH) and a temperature of 40° C.
The observation of the sample stability lasted for a period of eight weeks, during which once a week, […], an aliquot was taken from each sample and subjected to XRD analysis to observe any possible crystalline changes of the various samples over time.

[3] = Thermodynamic solubility test; details: buffer solution pH 7.4, 37° C., stirring about 500 rpm
Procedure: For this purpose, a dissolution test was carried out in a buffer solution at pH 7.4. The thermodynamic solubility evaluation was performed leaving the sample in the buffer solution, under magnetic stirring at about 500 rpm, for a period of 24 hours, at a temperature of 37° C.

| Compound | mass variation (humidity absorption, DVS) [1] | behavior in DVS hygroscopicity study [1] | onset of conversion into crystalline hemihydrate form F (XRD) [2] | extent of conversion into form F at the end of the observation period (XRD) ([2]; eight weeks) | stability of crystalline form over time (XRD) [2] | thermodynamic solubility ([3]; 24 hours) [mg/mL] | extent of conversion into form F after seven weeks (XRD) ([2]; seven weeks) | solubility thermodynamic at 24 h ([3]; buffer solution, 37 °C, pH 7.4, aqueous buffer, thermodynamic from solid) [mg/mL] |
| --- | --- | --- | --- | --- | --- | --- | --- | --- |
| NCCCCCC(O)(P(=O)([O-])O)P(=O)(O)O.[Na+] [form B, sodium neridronate] | about 5% | hydrophilic behavior | begin to convert into the crystalline hemihydrate form F already after a week | only partially converted | not stable over time | 92.97 |  |  |
| NCCCCCC(O)(P(=O)([O-])O)P(=O)(O)O.[Na+] [form E, sodium neridronate] | about 1% | hydrophilic behavior | begin to convert into the crystalline hemihydrate form F already after a week |  | not stable over time |  | completely converted into the crystalline hemihydrate form F |  |
| NCCCCCC(O)(P(=O)([O-])O)P(=O)(O)O.[Na+] [form F, sodium neridronate] | without any appreciable mass variation | hydrophobic behavior |  |  | stable even after eight weeks conditioning |  |  | 93.7 |
